According to ChEMBL document CHEMBL4819091, “Identification of novel gankyrin binding scaffolds by high throughput virtual screening” (Bioorg Med Chem Lett, 2021):
Active and inactive are the calls of the source. The rule behind the calls is not given here.

Key:
[1] = molecular target: T1, 26S proteasome non-ATPase regulatory subunit 10 (Homo sapiens) (UniProt O75832); assay: Binding affinity to recombinant human His-tagged gankyrin expressed in Escherichia coli assessed as change in melting temperature at 300 uM by SYPRO orange dye based thermal shift assay
T1 sequence (whole entry): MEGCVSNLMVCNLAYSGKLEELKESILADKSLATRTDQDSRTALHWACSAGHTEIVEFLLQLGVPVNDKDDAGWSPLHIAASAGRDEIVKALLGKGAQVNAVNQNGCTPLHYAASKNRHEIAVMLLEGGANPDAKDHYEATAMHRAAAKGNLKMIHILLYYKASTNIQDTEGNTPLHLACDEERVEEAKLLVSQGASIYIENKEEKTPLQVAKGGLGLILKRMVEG

A549 [2] = assay: Cytotoxicity against human A549 cells assessed as reduction in cell viability incubated for 72 hrs by MTT assay; format: functional, cell-based; settings: A549, 72 h
MDA-MB-231 [3] = assay: Cytotoxicity against human MDA-MB-231 cells assessed as reduction in cell viability incubated for 72 hrs by MTT assay; format: functional, cell-based; settings: MDA-MB-231, 72 h
HepG2 [4] = assay: Cytotoxicity against human HepG2 cells assessed as reduction in cell viability incubated for 72 hrs by MTT assay; format: functional, cell-based; settings: HepG2, 72 h
Hep 3B2 [5] = assay: Cytotoxicity against human Hep3B cells assessed as reduction in cell viability incubated for 72 hrs by MTT assay; format: functional, cell-based
[6] = Cytotoxicity against human HuH-6 cells assessed as reduction in cell viability incubated for 72 hrs by MTT assay; format: functional, cell-based; settings: HuH-6, 72 h
A549 [7] = assay: Potency index, ratio of IC50 of Cjoc42 to IC50 of compound for cytotoxicity against human A549 cells assessed as reduction in cell viability incubated for 72 hrs by MTT assay; format: functional
MDA-MB-231 [8] = assay: Potency index, ratio of IC50 of Cjoc42 to IC50 of compound for cytotoxicity against human MDA-MB-231 cells assessed as reduction in cell viability incubated for 72 hrs by MTT assay; format: functional
HepG2 [9] = assay: Potency index, ratio of IC50 of Cjoc42 to IC50 of compound for cytotoxicity against human HepG2 cells assessed as reduction in cell viability incubated for 72 hrs by MTT assay; format: functional
Hep 3B2 [10] = assay: Potency index, ratio of IC50 of Cjoc42 to IC50 of compound for cytotoxicity against human Hep3B cells assessed as reduction in cell viability incubated for 72 hrs by MTT assay; format: functional
[11] = Potency index, ratio of IC50 of Cjoc42 to IC50 of compound for cytotoxicity against human HuH-6 cells assessed as reduction in cell viability incubated for 72 hrs by MTT assay; format: functional
[12] = molecular target: T1, 26S proteasome non-ATPase regulatory subunit 10 (Homo sapiens); assay: Inhibition of gankyrin in human HuH-6 cells assessed as increase in p53 level at 25 to 100 uM by immunoblot assay; format: cell-based; settings: dose 25-100 µM
[13] = molecular target: T1, 26S proteasome non-ATPase regulatory subunit 10 (Homo sapiens); assay: Inhibition of gankyrin in human HuH-6 cells assessed as increase in phopho-Rb level at 25 to 100 uM by immunoblot assay; format: cell-based; settings: dose 25-100 µM
[14] = molecular target: T1, 26S proteasome non-ATPase regulatory subunit 10 (Homo sapiens); assay: Inhibition of gankyrin in human Hep3B cells assessed as increase in p53 level at 12.5 to 50 uM by immunoblot assay; format: cell-based; settings: dose 12.5-50 µM
[15] = molecular target: T1, 26S proteasome non-ATPase regulatory subunit 10 (Homo sapiens); assay: Inhibition of gankyrin in human Hep3B cells assessed as increase in CUGBP1 level at 12.5 to 50 uM by immunoblot assay; format: cell-based; settings: dose 12.5-50 µM

SMILES	ΔTm [1]	IC50 (A549 [2])	IC50 (MDA-MB-231 [3])	IC50 (HepG2 [4])	IC50 (Hep 3B2 [5])	IC50 [6]	Ratio IC50 (A549 [7])	Ratio IC50 (MDA-MB-231 [8])	Ratio IC50 (HepG2 [9])	Ratio IC50 (Hep 3B2 [10])	Ratio IC50 [11]	inhibition [12]	inhibition [13]	inhibition [14]	inhibition [15]
O=C(O)CN(Cc1ccc(Cl)cc1)C(=O)c1cnc(N2CCC[C@H]2COc2ccc(Cl)cc2)nc1CCc1ccccc1	7.92 °C	45.6 µM	88.1 µM	52.7 µM	25.5 µM	44.3 µM	2.2	1.1	1.9	3.9	1.6	–	–	–	–
COc1cccc2c1O[C@@](C)(CCC(=O)O)[C@@H]1CC[C@@H](CCCN)O[C@@H]21	0.17 °C	–	–	–	–	–	–	–	–	–	–	–	–	–	–
COC(=O)c1ccc(-n2cc(CCCOS(=O)(=O)c3ccc(C)cc3)nn2)cc1	0.5 °C	> 100 µM	> 100 µM	> 100 µM	> 100 µM	70.7 µM	–	–	–	–	–	–	–	–	–
O=C(O)COc1ccc(CC(=O)O)cc1-c1cc(-c2ccc(Cl)cc2)n(CCc2ccccc2)n1	1.94 °C	> 100 µM	> 100 µM	> 100 µM	> 100 µM	> 100 µM	–	–	–	–	–	Active	Active	Active	Active
CS(=O)(=O)Cc1cccc(C(=O)NS(=O)(=O)c2ccc(S(C)(=O)=O)cc2)c1	0.29 °C	–	–	–	–	–	–	–	–	–	–	–	–	–	–
